Test system: stratum corneum (SC)
Assay: Stratum corneum (SC) tape stripping, keratolytic efficacy
Assay type: in vivo
Details: for increase of SC removal: for 3-6 hours
Excerpt: Keratolytic efficacy of an agent is optionally assessed by examining stratum corneum (SC) tape strippings to measure the total SC protein amount removed and on the tape. The amount of skin mass on the tape is directly proportional to the amount of keratolysis. Salicylic acid is a keratolytic, while retinoic acid is known mostly for its comedolytic properties, and benzoyl peroxide is known mostly for its anti-microbial mechanism. Here, all three were examined for relative keratolytic efficacy.

O=C(OOC(=O)c1ccccc1)c1ccccc1 [benzoyl peroxide]
effectiveness in interfering with SC cohesion (After 3 hours): significantly more effective in interfering with SC cohesion than either salicylic acid or retinoic acid | increase of SC removal: about 10% | keratolytic effects (tape stripping) (overall comparison): comparable to that of salicylic acid and retinoic acid

CC1=C(/C=C/C(C)=C/C=C/C(C)=C/C(=O)O)C(C)(C)CCC1 [retinoic acid]
increase of SC removal: approximately 35%

O=C(O)c1ccccc1O [salicylic acid]
increase of SC removal: about 10%

— patent US20260108533A1, “COMPOSITIONS AND METHODS FOR THE TREATMENT OF MEIBOMIAN GLAND DYSFUNCTION” (Azura Ophthalmics Ltd., priority 2019, published 2026)
